Data set [1] has as its target T1, glucagon receptor (Homo sapiens, UniProt P47871).
T1 construct: expressed in transfected cells
Put plainly: Assay (I) Glucagon activity: cAMP biosensor (ACTOne) FLIPR assay in HEK-293 cells with cloned glucagon receptor. The data set is classed as cell-based. How it is done: The cells (14000 per well) were incubated (37° C., 5% CO2) overnight in 384-well plates. Next day the cells were loaded with a calcium responsive dye that only distributed into the cytoplasm. Probenecid, an inhibitor of the organic anion transporter, was added to prevent the dye from leaving the cell. A PDE inhibitor was added to prevent formatted cAMP from being degraded. […] End point data were collected after 6 minutes. An increase in intracellular cAMP was proportional to an increased in calcium concentrations in the cytoplasm. When calcium was bound the dry a fluorescence signal was generated. EC50-values were calculated in Prism5.

A short description of data set [2]: Assay (II) ThT fibrillation assay for physical stability. The data set is classed as physicochemical. The following applies: ThT fibrillation assay, pH 4.0, 250 μM, 10 mM glycylglycine, 45 hours at 37° C., shaking 960 rpm. An excerpt:
This has traditionally been measured by visual inspection of the sample. However, that kind of measurement is very subjective and depending on the observer. Therefore, the application of a small molecule indicator probe is much more advantageous.
Here, F is the ThT fluorescence at the time t. The constant t0 is the time needed to reach 50% of maximum fluorescence.
Few of those intermediates nucleate to form a template onto which further intermediates may assembly and the fibrillation proceeds. The lag-time corresponds to the interval in which the critical mass of nucleus is built up and the apparent rate constant is the rate with which the fibril itself is formed.
Samples were prepared freshly before each assay. […] The pH of the sample was adjusted to the desired value using appropriate amounts of concentrated NaOH and HCl. Thioflavin T was added to the samples from a stock solution in H2O to a final concentration of 1 μM.
The plate was sealed with Scotch Pad (Qiagen).
Each run was initiated by incubating the plate at the assay temperature for 10 min. The plate was measured every 20 minutes for a desired period of time. Between each measurement, the plate was shaken and heated as described.
The supernatant was filtered through a 0.22 μm filter and an aliquot was transferred to a HPLC vial.
The measurement points were saved in Microsoft Excel format for further processing and curve drawing and fitting was performed using GraphPad Prism.
The data set may be fitted to Eq. (1).

T1 sequence (P47871 26-477): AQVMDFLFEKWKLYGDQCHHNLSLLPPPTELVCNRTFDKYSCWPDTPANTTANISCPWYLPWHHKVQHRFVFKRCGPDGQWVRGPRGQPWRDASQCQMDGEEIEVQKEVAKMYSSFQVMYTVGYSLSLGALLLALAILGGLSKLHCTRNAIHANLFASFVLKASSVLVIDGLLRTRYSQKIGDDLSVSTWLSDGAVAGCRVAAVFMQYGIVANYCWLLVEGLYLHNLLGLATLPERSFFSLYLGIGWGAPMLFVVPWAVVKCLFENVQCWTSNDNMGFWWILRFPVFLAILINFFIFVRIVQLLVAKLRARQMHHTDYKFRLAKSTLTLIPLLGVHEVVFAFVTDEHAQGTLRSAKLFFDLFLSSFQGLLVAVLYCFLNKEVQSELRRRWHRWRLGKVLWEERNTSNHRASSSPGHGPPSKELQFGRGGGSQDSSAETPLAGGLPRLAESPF

`CC(C)C[C@H](NC(=O)[C@H](Cc1ccc(O)cc1)NC(=O)[C@H](CCCCN)NC(=O)[C@H](CO)NC(=O)[C@H](Cc1ccc(O)cc1)NC(=O)[C@H](CC(=O)O)NC(=O)[C@H](CO)NC(=O)[C@@H](NC(=O)[C@H](Cc1ccccc1)NC(=O)[C@@H](NC(=O)CNC(=O)[C@H](CCC(N)=O)NC(=O)[C@H](CO)NC(=O)[C@@H](N)Cc1c[nH]cn1)[C@@H](C)O)[C@@H](C)O)C(=O)N[C@@H](CC(=O)O)C(=O)N[C@@H](CO)C(=O)N[C@@H](CCCNC(=N)N)C(=O)N[C@@H](CCCNC(=N)N)C(=O)N[C@@H](C)C(=O)N[C@@H](CCC(N)=O)C(=O)N[C@@H](CC(=O)O)C(=O)N[C@@H](Cc1ccccc1)C(=O)N[C@H](C(=O)N[C@@H](CCC(N)=O)C(=O)N[C@@H](CCCNC(=N)N)C(=O)N[C@@H](CC(C)C)C(=O)N[C@@H](CC(C)C)C(=O)N[C@@H](CCC(=O)O)C(=O)N[C@H](C(=O)O)[C@@H](C)O)C(C)C` [Example 11, [Arg^25, Leu^27, Glu^28]-Glucagon]: in data set [1], the EC50 (as a rule, the concentration needed to bring the measured effect to its halfway point) is 0.037 nM. The Assay (II) (pH 4.0) Lag time (hours) in data set [2] is over 45 hours.

The values above are taken from patent publication US20130053310A1 (NOVO NORDISK A/S, priority 2010, published 2013).
